Test results reported in PMC12131194, “Rational design, synthesis, and evaluation of novel polypharmacological compounds targeting NaV1.5, KV1.5, and K2P channels for atrial fibrillation” (The Journal of Biological Chemistry, 2025).
Several values for one entry are separate records, joined by “and”; a condition that tells them apart may be missing. Equal entries are not always repeated.

Assays:
human TASK-1 = human TASK-1 (Homo sapiens, UniProt O14649); assay: TEVC recordings in X. laevis oocytes, TASK-1; assay type: cell-based; parameters: human TASK-1 (KCNK3, NM_002246); expressed in transfected cells; host or cells: Xenopus laevis oocytes injected with cRNA; conditions: for Ionic current block IK2P: from inhibition curves, used for simulation
Chain of human TASK-1 (O14649 whole entry): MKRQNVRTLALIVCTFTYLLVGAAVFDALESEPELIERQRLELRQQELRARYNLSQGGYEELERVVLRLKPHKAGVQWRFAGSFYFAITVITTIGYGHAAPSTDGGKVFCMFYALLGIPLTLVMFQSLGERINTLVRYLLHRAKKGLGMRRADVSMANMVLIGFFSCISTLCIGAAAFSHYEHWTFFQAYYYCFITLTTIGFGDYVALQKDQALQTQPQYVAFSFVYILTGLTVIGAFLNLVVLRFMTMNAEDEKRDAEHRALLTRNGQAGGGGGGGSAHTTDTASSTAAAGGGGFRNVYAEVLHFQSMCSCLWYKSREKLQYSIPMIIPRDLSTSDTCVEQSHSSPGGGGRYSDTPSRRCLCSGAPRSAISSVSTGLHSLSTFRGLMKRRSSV
Procedure: The two-electrode voltage clamp (TEVC) technique was used for electrophysiology tests. Channels were expressed in Xenopus laevis oocytes. The initial channel-blocking potential was assessed at 100 μM for the 10 synthesized compounds on TASK-1 and KV1.5 channels.
To obtain X. laevis oocytes, the frogs were anesthetized with 2 g/L of tricaine methanesulfonate, and the ovarian lobes were mechanically separated with forceps. The oocytes were incubated for 120 min in an OR2 solution containing in mM: NaCl 82.5, KCl 2, MgCl2 1, HEPES 5 (pH 7.5) supplemented with 2 mg/ml of collagenase II (Sigma) to remove residual connective tissue and obtain individual oocytes. Subsequently, the oocytes were washed with a ND96 solution containing in mM: NaCl 96, KCl 2, CaCl2 1.8, MgCl2 1, HEPES 5 (pH 7.5, adjusted with NaOH) and stored at 18 °C in ND96 solution supplemented with 1 ml of gentamicin (50 mg/L), sodium pyruvate (275 mg/L) and (90 mg/L) theophylline (inhibits further oocyte maturation) before and after RNA injection.
(§1) In order to overexpress the channel in the oocyte, each of the channels to be measured was subcloned (complementary DNA (cDNA); human TASK-1 (KCNK3, NM_002246), h KV1.5 (KCNA5, NM_002234), h NaV1.5 (hH1, M77235), TASK-4/TALK-2 (KCNK17, NM_AF358910), TREK-1 (KCNK2, AF004711) and Kir2.1 (KCNJ2, NM_017296) into pSGEM, pBF1 or pSP64 expression vector, and the cDNA was linearized with NheI or MluI. Complementary RNA (cRNA) was synthesized with the mMESSAGE mMACHINE-Kit (Ambion). The quality of the cRNA was tested on an agarose gel by electrophoresis. cRNA was quantified using a UV-Vis spectrophotometer (NanoDrop 2000). Subsequently, the channel was transfected in the oocytes in stages V and VI, for which 50 nl (TASK-1, KV1.5 or TREK-1), 10 ng (NaV1.5 or TASK-4) o 2.5 ng (Kir2.1) per oocyte of cRNA was injected with a NanojectII microinjector (Drummond Scientific). The oocytes were stored in 24-well plates for 24 to 48 h at 18 °C. After this time, the overexpression of each channel was monitored through electrophysiology.
Two-electrode voltage clamp measurements were performed 24 or 48 h after cRNA injection at room temperature (20–22 °C) in ND96 recording solution with a TurboTEC-10CD (npi) amplifier and a Digidata 1550B (for TASK-1 and KV1.5) and 1440A (for NaV1.5) A/D converter from Axon Instruments. Micropipettes were fabricated from GB 150 TF-8P borosilicate glass capillaries (Science Products) elongated in a DMZ-Universal Puller (Zeitz, Germany). […] ND96 was used as bath solution. Data acquisition was performed using Clampex 10 software (Axon Instruments), and data were analyzed with ClampFit 10 (Axon Instruments) and Origin 7 (Origin Lab Corporation).
For compound inhibition testing, from a holding potential of −80 mV a first test pulse to 0 mV of 1 s duration was followed by a repolarization step at −80 mV for 1 s, directly followed by another 1 s test pulse at +40 mV. The sweep time interval was 10 s for KV1.5 and TASK-1 channels. For the NaV1.5 channel, the block was analyzed with voltage steps from a holding potential of −80 mV. A first depolarizing pulse to −30 mV of 50 ms duration was applied, followed by a 5 ms step to −80 mV. The sweep time interval was 5 s. The compounds were applied at different concentrations to determine the half-maximal inhibitory concentration (IC50), using a fit to the Hill equation.
To test for a putative voltage-dependence of the block by the compound 6f in KV1.5, a 1.5 s voltage step protocol from −80 to +80 mV with +20 mV increments was used. The holding potential was −80 mV and the sweep time interval was 10 s. Currents were analyzed at the end of the voltage pulse. For TASK-1, voltage-dependence of block was probed using a high-potassium solution (KD96) containing in mM: KCl 96, NaCl 2, CaCl2 1.8, MgCl2 1, HEPES 5, (pH 7.5, adjusted with KOH). From a holding potential of 0 mV, voltage was stepped from −80 mV to +80 mV for 1.5 s in +20 mV steps every 10 s. […]

Kir2.1 = biological target: T1, Kir2.1 (Rattus norvegicus, UniProt Q64273); assay: TEVC selectivity in X. laevis oocytes, Kir2.1; assay type: cell-based; conditions: mean ± SD, n = 3, read-out: Effect on Kir2.1 (inhibition)
T1 construct: Kir2.1 (KCNJ2, NM_017296); expressed in transfected cells; host or cells: Xenopus laevis oocytes injected with cRNA
T1 sequence (Q64273 1-427): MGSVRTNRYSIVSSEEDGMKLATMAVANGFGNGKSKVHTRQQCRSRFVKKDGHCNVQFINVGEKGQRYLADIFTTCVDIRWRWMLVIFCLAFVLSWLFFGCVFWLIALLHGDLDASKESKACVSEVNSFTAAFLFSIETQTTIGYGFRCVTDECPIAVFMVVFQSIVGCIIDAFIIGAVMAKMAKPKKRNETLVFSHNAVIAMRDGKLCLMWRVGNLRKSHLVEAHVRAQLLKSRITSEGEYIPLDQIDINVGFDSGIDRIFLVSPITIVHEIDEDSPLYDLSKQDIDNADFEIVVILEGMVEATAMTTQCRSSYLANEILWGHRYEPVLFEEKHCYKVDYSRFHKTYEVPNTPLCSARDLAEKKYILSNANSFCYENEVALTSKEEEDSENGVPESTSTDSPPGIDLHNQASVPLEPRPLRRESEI
Procedure: After confirming compound 6f simultaneous blockade of TASK-1, KV1.5, and NaV1.5, other cardiac channels (Kir2.1, TREK-1, TASK-4) were tested for selectivity at 100 μM (Fig. 8).
To obtain X. laevis oocytes, the frogs were anesthetized with 2 g/L of tricaine methanesulfonate, and the ovarian lobes were mechanically separated with forceps. The oocytes were incubated for 120 min in an OR2 solution containing in mM: NaCl 82.5, KCl 2, MgCl2 1, HEPES 5 (pH 7.5) supplemented with 2 mg/ml of collagenase II (Sigma) to remove residual connective tissue and obtain individual oocytes. […]
as §1, with “Subsequently, the channel was transfected in the oocytes in stages V and VI, for which 50 nl (TASK-1, KV1.5 or TREK-1), 10 ng (NaV1.5 or TASK-4) o 2.5 ng (Kir2.1) per oocyte of cRNA was injected with a NanojectII microinjector (Drummond Scientific). The oocytes were stored in 24-well plates for 24 to 48 h at 18 °C.” left out, “electrophysiology. […]” for “electrophysiology.”

Ionic current block IK2P (human TASK-1; 1 μM): 58% | Ionic current block IK2P (human TASK-1; 10 μM): 75% | inhibition at 100 µM (human TASK-1; 100 μM, +40 mV, oocytes, mean ± SD): 84.1 ± 10.7% | Ionic current block IK2P (human TASK-1; 100 μM): 85% | IC50 (human TASK-1; X. laevis oocytes, TEVC, block at +40 mV): ~310 nM and 310 nM | Voltage-dependence of block of TASK-1 (human TASK-1; oocytes, KD96 solution): no significant voltage-dependence | inhibition at 100 µM (Kir2.1): -1.01%
SMILES: CCCCN(CCCC)CC(=O)Nc1ccc(OC)cc1OC [Compound 6f, 2-(dibutylamine)-N-(2,4-dimethoxiphenyl)acetamide]
